From patent US10550105B2 (Ribon Therapeutics Inc., priority 2018, dated 2020) come the findings set out here.

In test [1] the target is T1, PARP7 (Homo sapiens (Human), UniProt Q7Z3E1). Description: Inhibition of PARP7 (Table A-1). The test is classed as biochemical. Conditions: comparison of separated isomers, see Table A-1.
The target in test [2] is T1, PARP7. Description: Enzymatic assay for inhibition of PARP7: TR-FRET displacement of biotinylated Probe A from the TIPARP active site. Conditions: Table A-1. It is filed as binding. The gist of the method: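 Percent inhibition derives from the ratio of 665 to 615 nm emission, which reports how much Probe A remains bound to TIPARP. Plates sat 30 min at 25° C before the time-resolved read (320 nm excitation).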

The next test relates to CFPAC-1. In words: Growth inhibition of cancer cell lines, 72 hrs (CellTiter-Glo). Conditions: Homo sapiens, pancreas, ductal carcinoma. The test is classed as cell-based. As for the experimental part: (§1) Example C: Inhibition of Cancer Cell Growth by Treatment with PARP7 Inhibitors
(§2) Table A-2 and Table A-3 (below) represents the concentration that causes 50% growth inhibition (GI50) in a panel of cancer cell lines with Compound 18B and Compound 561. Cells were plated into 384-well plates at a pre-specified density in fetal bovine serum-containing media. Cells were treated with compound or vehicle (DMSO) 24 hrs later, and a day zero plate was collected for analysis. Test compound plates were incubated continuously for 72 hrs (Table A-2) or 144 hours (Table A-3) cell growth was assessed using a luminescent cell viability assay (CellTiter-Glo, Promega). The GI50was determined by correcting for the cell count at time zero (time of treatment) and plotting data as percent growth relative to vehicle-treated cells.

The subject of test [3] is Caki-1. The description is as above. The note with it: Homo sapiens, kidney, clear cell renal cell carcinoma. It is filed as cell-based. On the procedure: as §1, §2
Another test relates to GSU. Described as above. The note with it: stomach, adenocarcinoma. The test is classed as cell-based. On the procedure: as §1, §2
For test [4], the system named is KMBC-2. The description is as above. The test is classed as cell-based. The note with it: urinary tract, not specified. On the procedure: as §1, §2
A further test concerns LS123. The description is as above. The test is classed as cell-based. The note with it: Homo sapiens, LS-123, large intestine, adenocarcinoma. As for the experimental part: as §1, §2
For another test, the system named is NCI-H2228. Described as above. The note with it: Homo sapiens, lung, adenocarcinoma. The test is classed as cell-based. On the procedure: as §1, §2
Another test concerns NCI-H596. The test is described as above. The test is classed as cell-based. The note with it: Homo sapiens, lung, mixed adenosquamous carcinoma. On the procedure:
as §1, §2

The next test relates to SCC-25. The test is described as above. The test is classed as cell-based. The note with it: Homo sapiens, upper aerodigestive tract, squamous cell carcinoma. As for the experimental part:
as §1, §2

A further test deals with SW620. The test is described as above. The test is classed as cell-based. Conditions: Homo sapiens, SW-620, large intestine, adenocarcinoma. As for the experimental part: as §1, §2
In test [5] the test system is human NCI-H1373 lung cancer xenograft. In words: Tumor growth in human NCI-H1373 lung cancer xenograft (FIG. 7A). The test is classed as in vivo. The note with it: once daily administration.
A further test relates to A101D. In words: Growth inhibition of cancer cell lines, 144 hours (CellTiter-Glo). Conditions: Homo sapiens, melanoma. The test is classed as cell-based. On the procedure:
as §1, §2

The subject of another test is ACC-MESO-1. Described as above. The test is classed as cell-based. The note with it: mesothelioma. As for the experimental part:
as §1, §2

In the next test the test system is CAL-27. The description is as above. It is filed as cell-based. Conditions: Homo sapiens, tongue squamous cell carcinoma. As for the experimental part: as §1, §2
A further test concerns COLO 680N. Described as above. The test is classed as cell-based. Conditions: Homo sapiens, esophageal squamous cell carcinoma. On the procedure:
as §1, §2

For test [6], the system named is Caki-1. The test is described as above. It is filed as cell-based. The note with it: Homo sapiens, clear cell renal cell carcinoma. On the procedure:
as §1, §2

The test system of another test is H4. The description is as above. The test is classed as cell-based. Conditions: neuroglioma. On the procedure: as §1, §2
The subject of the next test is HCC1954. The description is as above. The test is classed as cell-based. The note with it: Homo sapiens, ductal breast carcinoma. As for the experimental part: as §1, §2
For test [7], the system named is KMBC-2. The description is as above. The test is classed as cell-based. Conditions: bladder carcinoma. As for the experimental part:
as §1, §2

Another test deals with KMRC-3. The test is described as above. It is filed as cell-based. Conditions: clear cell renal carcinoma. As for the experimental part:
as §1, §2

In another test the test system is MCAS. The description is as above. It is filed as cell-based. Conditions: ovarian mucinous cystadenocarcinoma. As for the experimental part:
as §1, §2

The test system of another test is MDA-MB-468. The test is described as above. The test is classed as cell-based. Conditions: Homo sapiens, breast adenocarcinoma. On the procedure: as §1, §2
Another test has as its system MSTO-211H. Described as above. The note with it: Homo sapiens, biphasic mesothelioma. The test is classed as cell-based. On the procedure:
as §1, §2

Another test deals with NCI-H1930. Described as above. The note with it: Homo sapiens, small cell lung carcinoma. The test is classed as cell-based. As for the experimental part:
as §1, §2

The next test has as its system NCI-H2009. The description is as above. The test is classed as cell-based. The note with it: Homo sapiens, lung adenocarcinoma. As for the experimental part: as §1, §2
The subject of the next test is NCI-H2291. The description is as above. The note with it: Homo sapiens, lung adenocarcinoma. The test is classed as cell-based. On the procedure: as §1, §2
Another test concerns NCI-H2444. The description is as above. It is filed as cell-based. Conditions: Homo sapiens, non-small cell lung carcinoma. On the procedure:
as §1, §2

The subject of a further test is NCI-H441. Described as above. The test is classed as cell-based. The note with it: Homo sapiens, papillary adenocarcinoma of the lung. On the procedure: as §1, §2
A further test deals with NUGC-3. The description is as above. The note with it: Homo sapiens, gastric adenocarcinoma. It is filed as cell-based. As for the experimental part: as §1, §2
The test system of another test is Panc 03.27. The test is described as above. It is filed as cell-based. The note with it: Homo sapiens, PANC-03-27, pancreatic adenocarcinoma. As for the experimental part: as §1, §2
The subject of the next test is SF126. Described as above. It is filed as cell-based. The note with it: Homo sapiens, SF-126, glioblastoma multiforme. As for the experimental part: as §1, §2
The next test deals with SNU-840. The description is as above. The test is classed as cell-based. Conditions: malignant ovarian Brenner tumor. On the procedure: as §1, §2
The next test relates to SW900. The description is as above. The test is classed as cell-based. Conditions: Homo sapiens, squamous cell lung carcinoma. As for the experimental part: as §1, §2
The next test has as its system TUHR10TKB. The description is as above. It is filed as cell-based. Conditions: renal cell carcinoma. As for the experimental part: as §1, §2
Another test deals with TYK-nu. The test is described as above. The note with it: high grade ovarian serious adenocarcinoma. It is filed as cell-based. On the procedure:
as §1, §2

The subject of the next test is YD-10B. The description is as above. The test is classed as cell-based. The note with it: tongue squamous cell carcinoma. As for the experimental part: as §1, §2

T1 sequence (Q7Z3E1 whole entry): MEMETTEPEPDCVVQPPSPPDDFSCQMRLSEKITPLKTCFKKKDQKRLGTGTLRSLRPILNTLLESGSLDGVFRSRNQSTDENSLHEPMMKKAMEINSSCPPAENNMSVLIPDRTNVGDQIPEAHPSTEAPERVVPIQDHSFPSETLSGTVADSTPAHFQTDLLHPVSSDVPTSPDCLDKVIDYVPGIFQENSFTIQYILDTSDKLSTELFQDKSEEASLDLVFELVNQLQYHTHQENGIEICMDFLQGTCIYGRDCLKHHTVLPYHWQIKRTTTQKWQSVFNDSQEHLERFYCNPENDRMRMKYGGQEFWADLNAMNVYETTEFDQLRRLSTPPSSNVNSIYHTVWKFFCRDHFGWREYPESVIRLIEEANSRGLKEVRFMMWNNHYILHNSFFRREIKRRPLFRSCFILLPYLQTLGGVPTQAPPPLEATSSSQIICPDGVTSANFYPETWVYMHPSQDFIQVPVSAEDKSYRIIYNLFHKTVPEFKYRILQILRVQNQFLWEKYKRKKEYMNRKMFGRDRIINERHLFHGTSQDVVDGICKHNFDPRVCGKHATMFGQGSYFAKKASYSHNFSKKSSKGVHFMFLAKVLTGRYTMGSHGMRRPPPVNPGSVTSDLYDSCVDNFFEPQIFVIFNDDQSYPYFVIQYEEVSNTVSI

Consider `N#Cc1ccc(N2CCN(C(=O)c3cccc(OC[C@@H]4c5ccccc5CN4c4cn[nH]c(=O)c4C(F)(F)F)c3)CC2)nc1` (single isomer, unassigned) [Example 18 Isomer B], for which the “relative potency of the enantiomers / diastereomers” value on PARP7 [1] is reported as “more potent enantiomer”. This molecule also gave an IC50 at PARP7 [2] of less than 100 nM. Further, the 50% growth inhibitory concentration (GI50) is 100 to 1000 nM in the test on CFPAC-1; less than 100 nM in the test on Caki-1 [3]; less than 100 nM in the test with GSU; 100 to 1000 nM in the test with KMBC-2 [4]; 100 to 1000 nM with LS123; 100 to 1000 nM in the test on NCI-H2228. Further, the GI50 in the test with NCI-H596 is less than 100 nM; with SCC-25, less than 100 nM; in the test with SW620, 100 to 1000 nM.

In the case of `C[C@@H](COCCC(=O)N1CCN(c2ncc(C(F)(F)F)cn2)CC1)Nc1cn[nH]c(=O)c1C(F)(F)F` [Example 561, 5-[[(2S)-1-(3-oxo-3-[4-[5-(trifluoromethyl)pyrimidin-2-yl]piperazin-1-yl]propoxy)propan-2-yl]amino]-4-(trifluoromethyl)-2,3-dihydropyridazin-3-one], in test [5], the tumor growth entry was “significantly reduces tumor growth”. In addition, the GI50 with A101D is not below 1000 nM; in the test with ACC-MESO-1 it was not below 1000 nM; in the test on CAL-27 it was not below 1000 nM; in the test with COLO 680N, not below 1000 nM; in the test on Caki-1 [6], less than 100 nM; with H4, not below 1000 nM. Further, the concentration for 50% growth inhibition (GI50) in the test with HCC1954, with KMBC-2 [7], with KMRC-3, in the test on MCAS, with MDA-MB-468 and in the test with MSTO-211H was not below 1000 nM in each case. In addition, the GI50 in the test on NCI-H1930, with NCI-H2009, in the test with NCI-H2291, in the test with NCI-H2444, in the test with NCI-H441 and with NUGC-3 was not below 1000 nM each time. Moreover, the 50% growth inhibitory concentration (GI50) in the test with Panc 03.27 was less than 100 nM; with SF126 it was not below 1000 nM; in the test on SNU-840 it was not below 1000 nM; with SW900, 100 to 1000 nM; in the test with TUHR10TKB, less than 100 nM; in the test on TYK-nu it was less than 100 nM. Further, the GI50 in the test on YD-10B was not below 1000 nM.
